Entries after “also recorded” stand apart in the source; their conditions may differ.
Legend:
developing conceptuses = details: 250 mg/kg prior to mating; fast elimination; cited from earlier work
yolk sac vasculogenesis = test: Whole conceptus culture: yolk sac vasculogenesis under hyperglycemia; format: cell-based, mouse; details: for rescue of hyperglycemia-arrested yolk sac vascular development (arborization): conceptus culture with 20 mM D-glucose plus agent, PECAM-1 staining
Protocol: Timed pregnant mice are used to harvest 7.5 and 9.5 days post conception (dpc) conceptuses from which yolk sac and hearts are dissected. The atrioventricular canals are isolated for subsequent culture and analysis of the epithelial to mesenchymal transformation that occurs in the formation of the endocardial cushion.
(§1) Conceptuses are cultured for 48 hrs in the presence of rat serum or rat serum+20 mM D-Glucose, or rat serum+20 mM D-Glucose+rVEGF or NO donor or 20 mM mannitol for 48 hrs. At 8.5 dpc the yolk sacs are harvested and analyzed using LC-MS and LC-MS-MS methods as well as by traditional cell and molecular biological methods. At 9.5 dpc atrioventricular (AV) canals are harvested from the conceptuses and cultured for 48 to 72 hrs on collagen gels to allow epithelial-mesenchymal transformation (EMT). The AV canal cultures are analyzed by double or triple label standard and confocal immunofluorescence microscopy, laser dissection capture microscopy followed by Western blotting for protein determination, characterization and localization. The effects of exogenous VEGF-A (1, 10 & 20 ng/ml), Pro- and mature BDNF (1, 25 & 50 ng/ml), NO donor (Noc-18) TIMP-1 and TIMP-2 (1, 25 & 50 ng/ml) on EMT and protein expression, post-translational modification and degradation are assessed.
Using this embryo culture system, groups of ten 7.5 dpc conceptuses were cultured in normoglycemic conditions (5.0 mM D-glucose [control]), hyperglycemic conditions (20 mM D-glucose [HG]), HG+10 pg/ml VEGF A165 (HG+rVEGF) and HG+a slow release NO donor (HG+Noc-18) for 24 hrs. The conceptuses were harvested at 8.5 dpc when their yolk sacs were at the primary capillary plexus stage and beginning to undergo vascular remodeling. Lysates were then prepared for SDS-PAGE, Silver Staining and MS analysis. FIG. 4A depicts PECAM-1 staining of the capillary plexas at 8.5 dpc and illustrates the non-descript vascular plexus observable at this stage of development. […] This is in contrast to LC-MS and LC-MS-MS analyses of these samples (see below).

cardiac EMT = details: cardiac A-V canal and outflow tract cultures, 20 mM D-glucose; cited from earlier work
NOGO A = test: Western blot of NOGO A in yolk sacs across treatment groups; format: cell-based, mouse; details: yolk sac culture, hyperglycemia plus agent, listed as NO donor
Protocol: as §1
(§2) Further, several of these proteins were validated in conceptus culture assays prior to and following VEGF and NO donor rescues using Western blotting, histological and immunolocalization analyses. […] Further, sequestration of Wnt16 (FIG. 11), ADAM 15 (FIG. 12), and NOGO A (FIG. 13) by antibodies directed against them abrogated EMT in cardiac AVC cushion explant cultures. […]

Wnt16 = test: Western blot of Wnt16 in yolk sacs across treatment groups; format: cell-based, mouse; details: yolk sac / whole conceptus culture, 20 mM D-glucose plus agent
Protocol: as §1, §2

ADAM 15 = test: Western blot of ADAM 15 in yolk sacs across treatment groups; format: cell-based, mouse; details: yolk sac / whole conceptus culture, 20 mM D-glucose plus agent
Protocol: as §1, §2

## CN(N=O)C(=O)N[C@H]1C(O)O[C@H](CO)[C@@H](O)[C@@H]1O (mixture of isomers) [Streptozotocin]
Developing conceptuses
  toxic effect on the developing conceptuses: no toxic effect

## OC[C@H]1O[C@H](O)[C@H](O)[C@@H](O)[C@@H]1O [alpha-D-glucose]
Yolk sac vasculogenesis; transient (as little as 3 hr) exposure, 20 mM alpha-D-glucose
  effect on yolk sac vasculogenesis: arrest yolk sac vasculogenesis at the primary capillary plexus stage
Cardiac EMT
  effect on cardiac cushion formation: arrested cushion formation

## NCCN(CCN)/[N+]([O-])=N/O [NOC-18]
Yolk sac vasculogenesis
  rescue of hyperglycemia-arrested yolk sac vascular development (arborization): rescue of the hyperglycemic arrest of vascular development; also recorded: restore normal vascular morphology; also recorded: rescue of yolk Sac vascular development
Yolk sac vasculogenesis; listed as NO donor
  rescue of hyperglycemia-arrested yolk sac vascular development (arborization): reversed
Yolk sac vasculogenesis; listed as NOD
  rescue of hyperglycemia-arrested yolk sac vascular development (arborization): restores vascular arborization
NOGO A
  NOGO A expression level (downregulated by hyperglycemia) after treatment: rescued; also recorded: returned to normal levels
Wnt16
  Wnt16 expression level (upregulated by hyperglycemia) after treatment: down-regulated to near normoglycemic levels
Wnt16; listed as NO donor
  Wnt16 expression level (upregulated by hyperglycemia) after treatment: rescued; also recorded: returned to normal levels
ADAM 15
  ADAM 15 expression level (downregulated by hyperglycemia) after treatment: up-regulated to near normoglycemic levels
ADAM 15; listed as NO donor
  ADAM 15 expression level (downregulated by hyperglycemia) after treatment: rescued; also recorded: returned to normal levels

Source: patent publication US20090305259A1, “Early Diagnosis of Congenital Abnormalities in the Offspring of Diabetic Mothers” (YALE UNIVERSITY, priority 2006, published 2009)
